Legend:
MDA-MB-436 cells = experiment: Second in-vitro cytological inhibitory activity experiment, first method (CelltiterGlo assay), MDA-MB-436; assay type: cell-based; settings: Homo sapiens, MDA-MB-436, 168 h, Experimental Example 3 first method, 3,000 cells/well, 7 days, read-out: In-vitro cytological activities, IC50, MDA-MB-436
Method: (§1) Experimental Example 3 Second Experiment of in-vitro Cytological Inhibitory Activities of Compounds of the Present Disclosure
(§2) Cell lines used in the following experiment were as follows: MDA-MB-436: human breast cancer cells; and Caov-3: Human ovarian cancer cells
(§3) First Experimental Method (CelltiterGlo Assay)
(§4) All cells were adherent cells, the MDA-MB-436 cell medium was DMEM+10% FBS+1% ITS-G+16 μg/ml glutathione, the Caov-3 cell medium was DMEM+10% FBS, and cells were tested in a logarithmic growth phase.
(§5) Cells in the logarithmic growth phase were collected and counted by a […]. The cell viability was detected by a trypan blue exclusion method, and the cell viability was kept over 90%. The cell concentration was adjusted to be in a proper range, and 90 μL of cell suspension was added into a 96-well plate respectively.
(§6) 2.1 DMSO stock solutions of the test compounds were prepared, and concentrations of the stock solutions of the test compounds were 10 mM respectively.
(§7) The stock solutions of the test compounds were serially diluted from 10 mM with DMSO in a 3-fold gradient for a total of 8 concentrations. Then, 2 µL of DMSO-gradient diluted compounds were respectively added into 198 µL of culture solutions to give the working stock solutions of the test compounds (a compound concentration was 10-fold higher than the final concentration, and a maximum concentration was 100 μM).
(§8) 10 μL of compound working stock solution was added into each well in the 96-well plate inoculated with cells (10-fold dilution, a final DMSO concentration was 0.1%).
(§9) Solvent control: 0.1% DMSO.
(§10) Blank control: 0 hour after dosing, the 96-well plate was detected and read.
(§11) 2.5 The 96-well plate was placed in a 5% CO2 cell incubator at 37° C. to culture for 7 days.
(§12) A CTG reagent was thawed and the 96-well plate was equilibrated to room temperature for 30 minutes, 60 μL of reagent (Celititer Glo assay kit) was added into each well, shaking was carried out for 2 minutes with a shaker (in the absence of light), and the plate was incubated at room temperature for 20 minutes (in the absence of light). Light signal values were read on a multi-functional microplate reader.
(§13) 1) inhibition (%)=(DMSO solvent control well reading−test compound well reading)/(DMSO solvent control well reading−blank control well reading)×100%;
(§14) 2) GraphPad Prism was input for drawing to obtain a curve and IC50.

[1] = target: Recombinant Human His6-USP1/His6-UAF1 Complex Protein (Homo sapiens (Human), UniProt O94782); experiment: In-vitro enzymatic activity on USP1, second experimental method (60 min incubation); assay type: biochemical; settings: incubation at room temperature 60 minutes, read-out: Inhibitory activities on USP-1, IC50
Method: 1) An enzyme solution was prepared in 1×test buffer.
2) Ubiquitin Rhodamine 110 protein, CF (UB-Rho), was added into 1×determination buffer to prepare a substrate solution.
3) 10 μL of enzyme solution and 1×reaction buffer were transferred to a 384-well plate, and
4) incubated at room temperature for 15 minutes.
5) 10 μL of substrate solution was added into each well to start the reaction, centrifuged for 30 seconds, and shaken for 30 seconds.
1) Plate reading was carried out on SpectraMax Paradigm for 30 minutes, with an excitation wavelength of 480 nm and an emission wavelength of 540 nm.
[formula] • wherein, Max represented: a luminous signal intensity of a positive control well without adding the compound; • Min represented: a luminous signal intensity of a negative control well without adding the enzyme; and • Signal represented: a luminous signal intensity of the compound of the test sample.
[formula] • wherein, Y represented: % inhibition; and • X represented: the concentration of the compound.
Second Experimental Method:
In the enzyme reaction experiment, the incubation time at room temperature in the step 4) was changed to 60 minutes, other conditions were the same as those in the first experimental method, and the following test results were obtained: […]

Caov-3 cells = experiment: Second in-vitro cytological inhibitory activity experiment, first method (CelltiterGlo assay), Caov-3; assay type: cell-based; settings: Homo sapiens, Caov-3, 168 h, Experimental Example 3 first method, 2,000 cells/well, 7 days
Method: as §1, §2, §3, §4, §5, §6, §7, §8, §9, §10, §11, §12, §13, §14

Sequence of Recombinant Human His6-USP1/His6-UAF1 Complex Protein (O94782 whole entry): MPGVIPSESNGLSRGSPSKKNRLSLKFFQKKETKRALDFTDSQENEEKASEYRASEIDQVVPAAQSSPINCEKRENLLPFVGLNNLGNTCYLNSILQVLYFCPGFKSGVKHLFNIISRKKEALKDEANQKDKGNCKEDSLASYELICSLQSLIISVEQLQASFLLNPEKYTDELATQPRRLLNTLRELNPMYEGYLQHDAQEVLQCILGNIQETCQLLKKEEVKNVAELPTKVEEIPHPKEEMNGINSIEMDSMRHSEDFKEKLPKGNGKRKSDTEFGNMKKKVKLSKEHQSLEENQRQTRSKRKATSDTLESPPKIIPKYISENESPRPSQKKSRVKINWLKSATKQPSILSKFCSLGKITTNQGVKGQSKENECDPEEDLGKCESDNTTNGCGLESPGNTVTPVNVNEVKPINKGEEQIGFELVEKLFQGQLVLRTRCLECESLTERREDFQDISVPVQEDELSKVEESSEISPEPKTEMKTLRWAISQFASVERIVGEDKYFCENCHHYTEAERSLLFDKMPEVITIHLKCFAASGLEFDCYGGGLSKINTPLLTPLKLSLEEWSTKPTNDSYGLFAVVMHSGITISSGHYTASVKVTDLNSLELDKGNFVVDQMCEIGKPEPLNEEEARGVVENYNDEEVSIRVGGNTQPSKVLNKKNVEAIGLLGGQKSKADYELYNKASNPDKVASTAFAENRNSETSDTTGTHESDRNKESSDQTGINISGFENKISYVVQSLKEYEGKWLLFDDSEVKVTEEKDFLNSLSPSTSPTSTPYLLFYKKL
Sequence of Recombinant Human His6-USP1/His6-UAF1 Complex Protein (Q8TAF3 whole entry partner): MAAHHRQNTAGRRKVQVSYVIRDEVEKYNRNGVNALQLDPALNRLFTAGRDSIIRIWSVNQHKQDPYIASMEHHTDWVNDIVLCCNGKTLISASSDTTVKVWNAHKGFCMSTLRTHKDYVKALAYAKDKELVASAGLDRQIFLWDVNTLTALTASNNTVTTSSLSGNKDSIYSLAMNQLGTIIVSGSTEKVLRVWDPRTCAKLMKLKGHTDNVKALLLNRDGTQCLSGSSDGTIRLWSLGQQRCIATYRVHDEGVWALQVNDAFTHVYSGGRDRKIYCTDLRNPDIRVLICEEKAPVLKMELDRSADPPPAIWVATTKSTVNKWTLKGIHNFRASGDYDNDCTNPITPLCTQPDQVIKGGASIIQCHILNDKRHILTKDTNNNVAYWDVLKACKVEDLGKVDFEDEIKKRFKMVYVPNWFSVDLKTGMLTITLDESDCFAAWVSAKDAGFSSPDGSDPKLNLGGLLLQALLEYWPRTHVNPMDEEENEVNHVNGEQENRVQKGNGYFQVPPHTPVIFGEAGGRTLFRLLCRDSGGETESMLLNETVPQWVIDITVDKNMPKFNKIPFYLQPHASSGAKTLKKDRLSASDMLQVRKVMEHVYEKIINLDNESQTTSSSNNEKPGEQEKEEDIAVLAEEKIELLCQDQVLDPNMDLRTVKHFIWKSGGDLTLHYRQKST

IC50 (MDA-MB-436 cells) [nM] | IC50 [1] [nM] | Structure (SMILES) | IC50 (Caov-3 cells) [nM]
42.4 | 12.9 | [2H]C([2H])([2H])Oc1ncnc(C2CC2)c1-c1nc2c3c(nn(Cc4ccc(-c5nc(C(F)(F)F)cn5C)cc4)c3n1)CCC2 [Compound 1-1, 4-(4-cyclopropyl-6-(methoxy-d3)pyrimidin-5-yl)-2-(4-(1-methyl-4-(trifluoromethyl)-1H-imidazol-2-yl)benzyl)-2,6,7,8-tetrahydropyrazolo[3,4,5-de]quinazoline] | 1 to 600
49.8 | 4.36 | Cc1cnn(C(C)C)c1-c1nc2c3c(nn(Cc4ccc(-c5nc(C(F)(F)F)cn5C(C)C)cc4)c3n1)CCC2 [Compound 19, 2-(4-(1-isopropyl-4-(trifluoromethyl)-1H-imidazol-2-yl)benzyl)-4-(1-isopropyl-4-methyl-1H-pyrazol-5-yl)-2,6,7,8-tetrahydropyrazolo[3,4,5-de]quinazoline] | 1 to 600
42.3 | 8 | COc1ncnc(C2CC2)c1-c1nc2c3c(nn(Cc4ccc(-c5nc(C(F)(F)F)cn5C(C)C)cc4)c3n1)CCC2 [Compound 16, 4-(4-cyclopropyl-6-methoxypyrimidine-5-yl)-2-(4-(1-isopropyl-4-(trifluoromethyl)-1H-imidazol-2-yl)benzyl)-2,6,7,8-tetrahydropyrazolo[3,4,5-de]quinazoline] | 1 to 600
122 | 15 | [2H]C([2H])([2H])Oc1ncnc(C2CC2)c1-c1nc2c3c(nn(Cc4ccc(-c5nc(C(F)(F)F)cn5C)cc4)c3n1)CCCC2 [Compound 11-1, 4-(4-cyclopropyl-6-(methoxy-d3)pyrimidin-5-yl)-2-(4-(1-methyl-4-(trifluoromethyl)-1H-imidazol-2-yl)benzyl)-6,7,8,9-tetrahydro-2H-1,2,3,5-tetraazabenzo[cd]azulene] | 1 to 600
110 | 6.66 | [2H]C([2H])([2H])Oc1ncnc(C2CC2)c1-c1nc2c3c(nn(Cc4ccc(-c5nc(C(F)(F)F)cn5C(C)C)cc4)c3n1)CCCC2 [Compound 17-1, 4-(4-cyclopropyl-6-(methoxy-d3)pyrimidin-5-yl)-2-(4-(1-isopropyl-4-(trifluoromethyl)-1H-imidazol-2-yl)benzyl)-6,7,8,9-tetrahydro-2H-1,2,3,5-tetraazabenzo[cd]azulene] | 1 to 600
55.3 | 6.67 | [2H]C([2H])([2H])Oc1ncnc(C2CC2)c1-c1nc2c3c(nn(Cc4ccc(-c5nc(C(F)(F)F)cn5C(C)C)cc4)c3n1)CCC2 [Compound 16-1, 4-(4-cyclopropyl-6-(methoxy-d3)pyrimidin-5-yl)-2-(4-(1-isopropyl-4-(trifluoromethyl)-1H-imidazol-2-yl)benzyl)-2,6,7,8-tetrahydropyrazolo[3,4,5-de]quinazoline] | 1 to 600
29.7 | 3.98 | Cc1cnn(C(C)C)c1-c1nc2c3c(nn(Cc4ccc(-c5nc(C(F)(F)F)cn5C)cc4)c3n1)CCC2 [Compound 18, 4-(1-isopropyl-4-methyl-1H-pyrazol-5-yl)-2-(4-(1-methyl-4-(trifluoromethyl)-1H-imidazol-2-yl)benzyl)-2,6,7,8-tetrahydropyrazolo[3,4,5-de]quinazoline] | 1 to 600
